# pKi: −log10 of the molar value.
# Experiments:
# [1] = molecular target: 5-hydroxytryptamine receptor 2A (Homo sapiens, UniProt P28223); assay: Binding affinity towards 5-hydroxytryptamine 2A receptor using [125I]DOI as radioligand.
# [2] = molecular target: Dopamine D2 receptor and serotonin 2a receptor (Homo sapiens) (UniProt P14416+P28223); assay: Selectivity ratio for inhibition of dopamine D2 receptor to that of 5-HT2A receptor.; format: protein assay
# D(2) dopamine receptor = D(2) dopamine receptor (Homo sapiens, UniProt P14416); assay: Binding affinity towards DA D2 receptor using [3H]N-methyl-spiperone as radioligand.
# Chain of D(2) dopamine receptor (P14416 whole entry): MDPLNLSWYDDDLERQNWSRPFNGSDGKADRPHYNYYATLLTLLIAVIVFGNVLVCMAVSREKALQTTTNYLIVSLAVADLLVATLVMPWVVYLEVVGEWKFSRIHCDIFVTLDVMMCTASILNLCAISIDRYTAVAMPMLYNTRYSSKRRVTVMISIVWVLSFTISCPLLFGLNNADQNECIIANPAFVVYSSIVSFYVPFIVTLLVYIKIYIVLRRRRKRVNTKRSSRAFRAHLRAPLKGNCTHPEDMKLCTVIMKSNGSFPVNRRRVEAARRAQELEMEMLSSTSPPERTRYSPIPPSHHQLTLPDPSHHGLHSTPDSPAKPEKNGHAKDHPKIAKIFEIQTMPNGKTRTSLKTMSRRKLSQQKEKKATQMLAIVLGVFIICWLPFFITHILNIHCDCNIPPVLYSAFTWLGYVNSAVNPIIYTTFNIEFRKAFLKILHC
# [3] = molecular target: T1, 5-hydroxytryptamine receptor 2C (Homo sapiens, UniProt P28335); assay: Binding affinity towards 5-hydroxytryptamine 2C receptor using [125I]DOI as radioligand.
# T1 sequence (P28335 whole entry): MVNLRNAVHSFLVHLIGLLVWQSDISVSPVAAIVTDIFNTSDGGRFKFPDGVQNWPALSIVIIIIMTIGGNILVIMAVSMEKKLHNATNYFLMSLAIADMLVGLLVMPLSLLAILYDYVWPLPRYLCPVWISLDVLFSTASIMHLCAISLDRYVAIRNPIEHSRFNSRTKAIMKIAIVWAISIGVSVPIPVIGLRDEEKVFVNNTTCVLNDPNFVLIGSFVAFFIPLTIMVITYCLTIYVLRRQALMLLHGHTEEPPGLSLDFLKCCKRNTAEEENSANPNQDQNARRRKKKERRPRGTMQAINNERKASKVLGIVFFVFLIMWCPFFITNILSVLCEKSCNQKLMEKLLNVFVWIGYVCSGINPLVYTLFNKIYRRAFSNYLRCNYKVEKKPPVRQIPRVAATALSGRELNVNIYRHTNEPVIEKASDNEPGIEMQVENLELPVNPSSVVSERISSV
# Rattus norvegicus = assay: Inhibition of quipazine induced head twitching after peroral administration in rat.; format: functional; conditions: po
# Chain of 5-hydroxytryptamine receptor 2A (P28223 whole entry): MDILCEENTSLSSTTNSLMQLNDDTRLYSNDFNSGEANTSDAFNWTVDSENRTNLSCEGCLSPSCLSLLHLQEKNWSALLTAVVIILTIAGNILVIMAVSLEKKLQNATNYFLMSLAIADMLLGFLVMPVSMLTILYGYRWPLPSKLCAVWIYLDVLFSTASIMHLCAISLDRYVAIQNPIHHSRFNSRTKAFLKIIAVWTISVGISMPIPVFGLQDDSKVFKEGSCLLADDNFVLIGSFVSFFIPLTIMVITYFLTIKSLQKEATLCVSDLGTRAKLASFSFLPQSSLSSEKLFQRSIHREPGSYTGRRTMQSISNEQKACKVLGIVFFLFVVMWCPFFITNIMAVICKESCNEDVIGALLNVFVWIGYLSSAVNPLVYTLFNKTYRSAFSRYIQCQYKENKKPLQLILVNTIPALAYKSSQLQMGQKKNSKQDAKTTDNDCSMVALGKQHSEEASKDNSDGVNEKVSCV
# Chain of Dopamine D2 receptor and serotonin 2a receptor (Homo sapiens) (P14416 whole entry, looked up): as the sequence (P14416 whole entry) above
# Chain of Dopamine D2 receptor and serotonin 2a receptor (Homo sapiens) (P28223 whole entry, looked up): as the sequence (P28223 whole entry) above
Compound,pKi [1],Ratio [2],pKi (D(2) dopamine receptor),pKi [3],ED50 (Rattus norvegicus) [mg/kg]
CCOC(=O)Nc1cc(F)ccc1C(=O)CCCN1CC[C@H]2[C@@H](C1)c1cccc3c1N2CCCS3,7.29,0.29,7.82,6.46,
Nc1ccccc1C(=O)CCCN1CC[C@@H]2[C@H](C1)c1cccc3c1N2CCCS3,7.98,0.57,8.23,6.49,
CS(=O)(=O)Nc1cc(F)ccc1C(=O)CCCN1CC[C@H]2[C@@H](C1)c1cccc3c1N2CCCS3,8.12,2.4,7.74,6.19,
Nc1cc(F)ccc1C(=O)CCCN1CC[C@H]2[C@@H](C1)c1cccc3c1N2CCCS3 (stereo in doubt; 6) [listing 1 of 2 here],,5.9,,,
Nc1c(F)cccc1C(=O)CCCN1CC[C@H]2[C@@H](C1)c1cccc3c1N2CCCS3,8.12,1.8,7.85,6.17,
Nc1cc(F)ccc1C(=O)CCCN1CC[C@H]2[C@@H](C1)c1cccc3c1N2CCCS3 (stereo in doubt; (+)-6) [listing 2 of 2 here],,6.8,,,
Nc1ccc(F)cc1C(=O)CCCN1CC[C@H]2[C@@H](C1)c1cccc3c1N2CCCS3,7.82,1,7.82,6.59,
O=CNc1cc(F)ccc1C(=O)CCCN1CC[C@H]2[C@@H](C1)c1cccc3c1N2CCCS3,7.05,0.09,8.11,6.59,
Nc1ccccc1C(=O)CCCN1CC[C@@H]2[C@H](C1)c1cccc3c1N2CCO3,7.92,5,7.22,6.30,
Nc1ccccc1C(=O)CCCN1CC[C@@H]2[C@H](C1)c1cccc3c1N2CCC3,8.43,17,7.20,7.03,
Nc1cc(O)ccc1C(=O)CCCN1CC[C@H]2[C@@H](C1)c1cccc3c1N2CCCS3,7.05,0.56,7.30,6.59,
Nc1ccccc1C(=O)CCCN1CC[C@@H]2[C@H](C1)c1cccc3c1N2CCCC3,8.51,6.5,7.70,6.83,
Nc1ccccc1C(=O)CCCN1CC[C@H]2[C@@H](C1)c1cccc3c1N2CCCS3 (stereo in doubt; 4) [listing 2 of 2 here],,2.9,,,
Nc1ccccc1C(=O)CCCN1CC[C@H]2[C@@H](C1)c1cccc3c1N2CCCS3 (stereo in doubt; (+)-4) [listing 1 of 2 here],,25,,,
Nc1cc(Cl)ccc1C(=O)CCCN1CC[C@H]2[C@@H](C1)c1cccc3c1N2CCCS3,7.15,0.03,8.64,6.12,
Nc1ccccc1C(=O)CCCN1CC[C@@H]2[C@H](C1)c1cccc3c1N2CCS3,8.18,2.9,7.72,6.63,
Nc1cc(Br)ccc1C(=O)CCCN1CC[C@H]2[C@@H](C1)c1cccc3c1N2CCCS3,7.10,0.06,8.33,6.95,
CCNC(=O)Nc1cc(F)ccc1C(=O)CCCN1CC[C@H]2[C@@H](C1)c1cccc3c1N2CCCS3,7.96,2.3,7.59,7.32,
Nc1cc(F)ccc1C(=O)CCCN1CC[C@@H]2[C@H](C1)c1cccc3c1N2CCO3,8.55,5.7,7.80,6.18,0.03
Nc1cc(F)ccc1C(=O)CCCN1CC[C@@H]2[C@H](C1)c1cccc3c1N2CCCS3,8.38,1.1,8.33,6.34,
CNc1ccccc1C(=O)CCCN1CC[C@H]2[C@@H](C1)c1cccc3c1N2CCCS3,7.21,0.5,7.51,6.60,

# Now from value to molecule, other results behind:
pKi [1],Ratio [2],pKi (D(2) dopamine receptor),pKi [3],Compound,ED50 (Rattus norvegicus) [mg/kg]
9.70,12,8.64,6.89,Nc1cc(F)ccc1C(=O)CCCN1CC[C@H]2[C@@H](C1)c1cccc3c1N2CCO3,
8.68,,8.22,6.70,Nc1ccccc1C(=O)CCCN1CC[C@H]2[C@@H](C1)c1cccc3c1N2CCCS3 (stereo in doubt; 4) [listing 1 of 2 here],
9.40,,8.57,7.09,Nc1cc(F)ccc1C(=O)CCCN1CC[C@H]2[C@@H](C1)c1cccc3c1N2CCCS3 (stereo in doubt; (+)-6) [listing 1 of 2 here],0.52
8.92,24,7.54,7.15,Nc1cc(F)ccc1C(=O)CCCN1CC[C@@H]2[C@H](C1)c1cccc3c1N2CCC3,1.4
9.15,16,7.96,6.97,Nc1ccccc1C(=O)CCCN1CC[C@H]2[C@@H](C1)c1cccc3c1N2CCCC3,
8.80,14,7.64,6.47,Nc1ccccc1C(=O)CCCN1CC[C@H]2[C@@H](C1)c1cccc3c1N2CCO3,
9.30,10.2,8.28,7.28,Nc1cc(F)ccc1C(=O)CCCN1CC[C@H]2[C@@H](C1)c1cccc3c1N2CCC3,
8.57,6.3,7.77,6.38,O=C(CCCN1CC[C@H]2[C@@H](C1)c1cccc3c1N2CCCS3)c1ccccc1,
8.60,3.5,8.06,6.22,O=C(CCCN1CC[C@H]2[C@@H](C1)c1cccc3c1N2CCCS3)c1ccc(F)cc1,0.86
9.22,5.8,8.46,6.87,Nc1cc(F)ccc1C(=O)CCCN1CC[C@H]2[C@@H](C1)c1cccc3c1N2CCCC3,
9.05,21,7.72,6.87,Nc1cc(F)ccc1C(=O)CCCN1CC[C@@H]2[C@H](C1)c1cccc3c1N2CCCC3,
9.15,,8.39,6.97,Nc1cc(F)ccc1C(=O)CCCN1CC[C@H]2[C@@H](C1)c1cccc3c1N2CCCS3 (stereo in doubt; 6) [listing 2 of 2 here],
9.22,,7.82,6.76,Nc1ccccc1C(=O)CCCN1CC[C@H]2[C@@H](C1)c1cccc3c1N2CCCS3 (stereo in doubt; (+)-4) [listing 2 of 2 here],
9.10,85,7.17,6.97,Nc1ccccc1C(=O)CCCN1CC[C@H]2[C@@H](C1)c1cccc3c1N2CCC3,
8.82,9.3,7.85,6.74,Nc1cc(F)ccc1C(=O)CCCN1CC[C@@H]2[C@H](C1)c1cccc3c1N2CCS3,
9.52,13,8.40,7.05,Nc1cc(F)ccc1C(=O)CCCN1CC[C@H]2[C@@H](C1)c1cccc3c1N2CCS3,
9.10,4.3,8.47,6.65,CC(=O)Nc1cc(F)ccc1C(=O)CCCN1CC[C@H]2[C@@H](C1)c1cccc3c1N2CCCS3,
9.10,51,7.39,6.38,Nc1ccccc1C(=O)CCCN1CC[C@H]2[C@@H](C1)c1cccc3c1N2CCS3,
